Reference: PMC4913735, “Non‐glycosidic compounds can stimulate both human and mouse iNKT cells” (European Journal of Immunology, 2016)

Tests used:
human DC = experiment: Human DC maturation (CD86 upregulation) in coculture with human iNKT cells and lipids; type: cell-based; details: compared to ThrCer; comparable to α‐GalCer; 40 h
Procedure: Figure 1 ThrCer 6 and ThrCer 7 are potent human iNKT‐cell agonists and display a prolonged interaction with the iNKT‐cell TCR when in complex with human CD1d molecules. (A) The structures of α‐GalCer and non‐glycosidic analogs ThrCer, ThrCer 6, and ThrCer 7 are shown. (B) Equilibrium binding and kinetics measurements of a soluble human iNKT‐cell TCR were assessed for hCD1d molecules refolded with α‐GalCer, ThrCer, ThrCer 6, and ThrCer 7. K d values (μM) were calculated from equilibrium binding. (C and D) iNKT‐cell agonists were added to human CD1d C1R cells at various concentrations. After incubating overnight, the degree of iNKT‐cell recognition, assessed either (C) by using a tetrameric human iNKT‐cell TCR by flow cytometry or (D) by the addition of human iNKT cells to cultures and determining the amount of IFN‐γ released in supernatant by ELISA. (E) Human DC maturation was assessed following coculture with human iNKT cells and l μg lipids after 40 h, as determined by CD86 upregulation on DC by flow cytometry. Median fluorescent intensity = MFI. (D and E) Error bars are mean ± SEM (triplicate wells). […]
To this end, hCD1d‐expressing C1R cells were loaded overnight with serial dilutions of lipids (α‐GalCer, ThrCer, ThrCer 6, and ThrCer 7) and then incubated with human iNKT cells. iNKT‐cell activation was assessed by measuring IFN‐γ production in the supernatant by ELISA. […]

murine iNKT cells = experiment: In vivo iNKT‐cell activation in mice: serum IFN‐γ/IL‐4 ELISA and splenic DC maturation; design: species or system C57BL/6 mice; details: for DC maturation (CD40 on CD11c+ cells) in iNKT cell deficient mice: CD1d−/− mice
Procedure: Figure 2 Enhanced in vivo potency of ThrCer 6. (A) Equilibrium binding and kinetics measurements of a soluble mouse iNKT‐cell TCR were assessed for mCD1d molecules refolded with α‐GalCer, ThrCer 6 and ThrCer 7. K d values (μM) were calculated from equilibrium binding. (B–D) Mice were immunized with 1 μg lipids i.v. and (B) IL‐4 and (C) IFN‐γ were detected by ELISA in blood sera at either 2 or 18 h, respectively. (D) At 18 h, immunized mice were sacrificed and splenocytes stained with anti‐CD11c and anti‐CD86 antibodies to determine the extent of maturation by the expression of CD86 on gated DCs (CD11c^+) using flow cytometry. (E and F) Mice were immunized i.v. with titrating doses of α‐GalCer, ThrCer, ThrCer 6, and ThrCer 7 and (E) IFN‐γ and (F) IL‐4 were detected in blood sera at 2, 12, and 18 h by ELISA. Median fluorescent intensity = MFI. (B–F) Data are shown as mean ± SEM (n = 3/group) and are representative of two independent experiments (A), three experiments (B–D), or a single experiment (E and F). *p < 0.05; Student's t‐test.
Concentrations of murine IFN‐γ and IL‐4 in serum were determined using standard sandwich ELISAs using the R4‐6A2 capture Ab for IFN‐γ (eBioscience), and the ID11 capture Ab for IL‐4 (Endogen). Biotinylated XMG1.2 (eBioscience) was used as the detection Ab for IFN‐γ and biotinylated BVD6‐24G2 (eBioscience) was used as the detection Ab for IL‐4. Human IFN‐γ in supernatants was determined using the capture Ab NIB42 (BD Pharmingen) and biotinylated 4S.B3 (BD Pharmingen) as the detection Ab.
Lipid compounds were solubilized in 150 mM NaCl and 0.5% Tween 20 (vehicle). All substances were diluted in PBS and administered either i.v., or i.m. Unless stated otherwise, doses used per injection were 400 μg OVA (Sigma) and 100 ng of lipid compounds or vehicle.
Human iNKT‐cells were expanded as described previously 34. For lipid titration studies, hCD1d C1R cells were pulsed with lipids overnight and following washes, cocultured with human iNKT cells. The presence of IFN‐γ was detected in supernatants by ELISA 12. For DC maturation studies, immature DCs were collected on day 4 and pulsed with lipids and iNKT cells 34. DC maturation was determined by the upregulation of CD86 by flow cytometry on a FACSCalibur with CellQuest software (BD) and analyzed with FlowJo software (Tree Star). For in vivo murine APC phenotype analysis the expression of CD86 or CD40 on CD11c^+ APCs from spleen were determined after 18 h post i.v. of 1 μg lipids on a CyAn cytometer and analyzed with FlowJo software (Tree Star).

NK cells = experiment: In vivo transactivation of NK cells (intracellular IFN‐γ, CD69) by flow cytometry; design: species or system mice; details: 1 μg i.v.; splenocytes at 12, 24 or 33 h
Procedure: Supplementary file EJI-46-1224-s001.pdf: Figure S1. […] Mice were immunized i.v. with 1 μg of lipids and splenocytes stained with anti‐CD11c and anti‐CD40 mAb to determine the extent of maturation by the expression of CD40 on gated DCs (CD11c+ cells) using flow cytometry. (n=3/group) Median Fluorescent Intensity=MFI. Error bars are mean ± SEM. Figure S2. IFN‐γ in serum of mice injected intramuscularly (i.m.) with iNKT cell agonists. C57BL/6 mice (n=4) or syngeneic CD1d knockout Mice (n=2) were injected intramuscularly with α‐GalCer, ThrCer 6 or vehicle. 18 hours later blood samples were tested for IFN‐γ using ELISA. As controls, mice (n=2) were injected intravenously with α‐GalCer or ThrCer 6. Error bars are mean ±SEM. one of two experiment is shown *p=0.0114. Figure S3. Transactivation of NK cells using non‐glycosidic analogues. Mice were immunized i.v. with 1 μg of lipids and sacrificed at 12 h, 24 h or 33 h post injection (n=3/group). Splenocytes were assessed by flow cytometry for the transactivation of NK cells (DX5+NK1.1+CD3‐ cells) using (B) the surface activation marker, CD69, or (A) intracellular IFN‐γ staining. Error bars are mean ± SEM. *p < 0.05. Representative of two independent experiments Figure S4. […] Data relating to numbers of ovalbumin specific T cells was analysed using the following gating stratagy: From top left to right and then bottom left to right. […]

Row | SMILES | Human DC maturation (CD86 upregulation) (human DC) | Ability to activate murine iNKT cells and mature DC in vivo (murine iNKT cells; 1 μg i.v., serum IL‐4 2 h, IFN‐γ 18 h, CD86 on CD11c+ DC, greater than ThrCer, similar to α‐GalCer) | DC maturation (CD40 on CD11c+ cells) in iNKT cell deficient mice (murine iNKT cells; 1 μg i.v.) | Serum IFN‐γ secretion after intramuscular injection (murine iNKT cells; i.m., 18 h post injection, compared with α‐GalCer) | Serum IFN‐γ secretion, in vivo dose titration (murine iNKT cells; i.v., after 12 and 18 h, compared with α‐GalCer) | Transactivation of NK cells (intracellular IFN‐γ, CD69) (NK cells)
1 | CCCCCCCCCCCCCCCCCCCCCCCCCC(=O)N[C@@H](CO[C@H]1CC[C@H](O)[C@H](O)[C@H]1O)[C@H](O)[C@H](O)CCCCCCCCCCCCCC [ThrCer 6] | improved ability | marked increase | do not mature DCs | higher | significantly enhanced | comparable transactivation of NK cells
2 | CCCCCCCCCCCCCCCCCCCCCCCCCC(=O)N[C@@H](CO[C@H]1O[C@H](CO)[C@H](O)[C@H](O)[C@H]1O)[C@H](O)[C@H](O)CCCCCCCCCCCCCC [α‐GalCer, α‐galactosylceramide, reference compound] | – | – | – | – | – | comparable transactivation of NK cells
3 | CCCCCCCCCCCCCCCCCCCCCCCCCC(=O)NC(COC1CCCC(O)C(O)C1O)C(O)C(O)CCCCCCCCCCCCCC (stereo not drawn) [ThrCer 7] | improved ability | – | do not mature DCs | – | – | –
